Test system: 299254-011-R-J1-PDC complex spheroid viability
Assay: Anticancer human tumor 299254-011-R-J1-PDC patient-derived melanoma cell line growth inhibition [POLQ]
Conditions: for IC50: curve of first compound; for viability, T/C: stronger effect = lower value
Method in brief: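 Complex spheroid viability model combining PDC tumour cells with endothelial (HUVEC) and MSC stromal cells. Novobiocin, ART-558 or RP6685 were tested singly and in combination with standard and investigational anticancer drugs. Each was titrated in half-log steps from near clinical Cmax, or from 10 microM where Cmax was unknown.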

[1] = second compound 0.0316 µM, first compound 0.0316 µM
[2] = second compound 0.0316 µM, first compound 0.1 µM
[3] = second compound 0.0316 µM, first compound 0.316 µM
[4] = second compound 0.0316 µM, first compound 1 µM
[5] = second compound 0.0316 µM, first compound 3.16 µM
[6] = second compound 0.0316 µM, first compound 10 µM
[7] = second compound 0.1 µM, first compound 0.0316 µM
[8] = second compound 0.1 µM, first compound 0.1 µM
[9] = second compound 0.1 µM, first compound 0.316 µM
[10] = second compound 0.1 µM, first compound 1 µM
[11] = second compound 0.1 µM, first compound 3.16 µM
[12] = second compound 0.1 µM, first compound 10 µM
[13] = second compound 0.316 µM, first compound 0.0316 µM
[14] = second compound 0.316 µM, first compound 0.1 µM
[15] = second compound 0.316 µM, first compound 0.316 µM
[16] = second compound 0.316 µM, first compound 1 µM
[17] = second compound 0.316 µM, first compound 3.16 µM
[18] = second compound 0.316 µM, first compound 10 µM
[19] = second compound 1 µM, first compound 0.0316 µM
[20] = second compound 1 µM, first compound 0.1 µM
[21] = second compound 1 µM, first compound 0.316 µM
[22] = second compound 1 µM, first compound 1 µM
[23] = second compound 1 µM, first compound 3.16 µM
[24] = second compound 1 µM, first compound 10 µM
[25] = second compound 3.16 µM, first compound 0.0316 µM
[26] = second compound 3.16 µM, first compound 0.1 µM
[27] = second compound 3.16 µM, first compound 0.316 µM
[28] = second compound 3.16 µM, first compound 1 µM
[29] = second compound 3.16 µM, first compound 3.16 µM
[30] = second compound 3.16 µM, first compound 10 µM
[31] = second compound 10 µM, first compound 0.0316 µM
[32] = second compound 10 µM, first compound 0.1 µM
[33] = second compound 10 µM, first compound 0.316 µM
[34] = second compound 10 µM, first compound 1 µM
[35] = second compound 10 µM, first compound 3.16 µM
[36] = second compound 10 µM, first compound 10 µM
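Further: spheroids exposed to drugs for one week before measurement.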
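Wherever viability, T/C is given: percent viability relative to DMSO vehicle control taken as 100%.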

`COc1ccc([C@@H](O)c2cc(-c3ncnc4cc(N5CCOCC5)ccc34)c(F)cc2Cl)nn1` + COC1C(OC(N)=O)C(O)C(Oc2ccc3c(O)c(NC(=O)c4ccc(O)c(CC=C(C)C)c4)c(=O)oc3c2C)OC1(C)C was tested, and the IC50 (second compound 0.0316 µM) was 9.66 µM, the IC50 (second compound 0.1 µM) was 8.91 µM and the IC50 (second compound 0.316 µM) was 8.8 µM. It also gave an IC50 (second compound 1 µM) greater than 10 µM, an IC50 (second compound 3.16 µM) greater than 10 µM and an IC50 (second compound 10 µM) of 8.74 µM. The viability, T/C [1] was 103%, the viability, T/C [2] was 90.6% and the viability, T/C [3] was 97.7%. For the same compound, the viability, T/C [4] was 109%, the viability, T/C [5] was 102% and the viability, T/C [6] was 48.3%. For the same compound, the viability, T/C [7] was 115%, the viability, T/C [8] was 109% and the viability, T/C [9] was 114%. It also gave a viability, T/C [10] of 99%, a viability, T/C [11] of 89.8% and a viability, T/C [12] of 45.4%. For the same compound, the viability, T/C [13] was 116%, the viability, T/C [14] was 125% and the viability, T/C [15] was 118%. For the same compound, the viability, T/C [16] was 106%, the viability, T/C [17] was 86.7% and the viability, T/C [18] was 45.4%. For the same compound, the viability, T/C [19] was 118%, the viability, T/C [20] was 107% and the viability, T/C [21] was 101%. For the same compound, the viability, T/C [22] was 110%, the viability, T/C [23] was 90.6% and the viability, T/C [24] was 54.5%. It also gave a viability, T/C [25] of 128%, a viability, T/C [26] of 96.3% and a viability, T/C [27] of 109%. It also gave a viability, T/C [28] of 103%, a viability, T/C [29] of 85.1% and a viability, T/C [30] of 51.1%. It also gave a viability, T/C [31] of 107%, a viability, T/C [32] of 107% and a viability, T/C [33] of 105%. The viability, T/C [34] was 87.1%, the viability, T/C [35] was 92.9% and the viability, T/C [36] was 44%.
`CCCS(=O)(=O)Nc1ccc(F)c(C(=O)c2c[nH]c3ncc(-c4ccc(Cl)cc4)cc23)c1F` + Cc1cccc(N(C)C(=O)C2C(O)CCN2c2nc(C)cc(C(F)(F)F)c2C#N)c1 was tested, and the IC50 (second compound 0.0316 µM) was greater than 10 µM, the IC50 (second compound 0.1 µM) was 8.99 µM and the IC50 (second compound 0.316 µM) was 9.29 µM. The IC50 (second compound 1 µM) was 9.29 µM, the IC50 (second compound 3.16 µM) was greater than 10 µM and the IC50 (second compound 10 µM) was greater than 10 µM. The viability, T/C [1] was 117%, the viability, T/C [2] was 95.7% and the viability, T/C [3] was 119%. The viability, T/C [4] was 109%, the viability, T/C [5] was 123% and the viability, T/C [6] was 50%. For the same compound, the viability, T/C [7] was 104%, the viability, T/C [8] was 107% and the viability, T/C [9] was 109%. For the same compound, the viability, T/C [10] was 114%, the viability, T/C [11] was 115% and the viability, T/C [12] was 44%. The viability, T/C [13] was 107%, the viability, T/C [14] was 112% and the viability, T/C [15] was 104%. The viability, T/C [16] was 110%, the viability, T/C [17] was 103% and the viability, T/C [18] was 46.3%. For the same compound, the viability, T/C [19] was 93.1%, the viability, T/C [20] was 103% and the viability, T/C [21] was 103%. The viability, T/C [22] was 107%, the viability, T/C [23] was 109% and the viability, T/C [24] was 46.4%. It also gave a viability, T/C [25] of 110%, a viability, T/C [26] of 124% and a viability, T/C [27] of 108%. The viability, T/C [28] was 108%, the viability, T/C [29] was 117% and the viability, T/C [30] was 52.6%. The viability, T/C [31] was 100%, the viability, T/C [32] was 110% and the viability, T/C [33] was 113%. For the same compound, the viability, T/C [34] was 107%, the viability, T/C [35] was 110% and the viability, T/C [36] was 52.4%.
In the case of `CC(C)n1c(=O)n(C)c2cnc3cc(F)c(-c4ccc(OCCCN5CCCCC5)nc4)cc3c21` + Nc1ccc(C#CCN(C(=O)Cc2ncc(C(F)(F)F)cc2C(F)(F)F)c2ccc(F)cc2)nn1, the IC50 (second compound 0.0316 µM) is reported as greater than 10 µM, the IC50 (second compound 0.1 µM) is reported as greater than 10 µM and the IC50 (second compound 0.316 µM) is reported as greater than 10 µM. The IC50 (second compound 1 µM) was greater than 10 µM, the IC50 (second compound 3.16 µM) was greater than 10 µM and the IC50 (second compound 10 µM) was greater than 10 µM. It also gave a viability, T/C [1] of 112%, a viability, T/C [2] of 105% and a viability, T/C [3] of 105%. For the same compound, the viability, T/C [4] was 111%, the viability, T/C [5] was 109% and the viability, T/C [6] was 72.9%. It also gave a viability, T/C [7] of 105%, a viability, T/C [8] of 102% and a viability, T/C [9] of 121%. For the same compound, the viability, T/C [10] was 105%, the viability, T/C [11] was 102% and the viability, T/C [12] was 78.7%. For the same compound, the viability, T/C [13] was 126%, the viability, T/C [14] was 123% and the viability, T/C [15] was 89.7%. The viability, T/C [16] was 108%, the viability, T/C [17] was 97.3% and the viability, T/C [18] was 84.5%. For the same compound, the viability, T/C [19] was 105%, the viability, T/C [20] was 102% and the viability, T/C [21] was 91.8%. For the same compound, the viability, T/C [22] was 105%, the viability, T/C [23] was 93.1% and the viability, T/C [24] was 79.7%. The viability, T/C [25] was 115%, the viability, T/C [26] was 109% and the viability, T/C [27] was 113%. It also gave a viability, T/C [28] of 116%, a viability, T/C [29] of 96.7% and a viability, T/C [30] of 78.3%. For the same compound, the viability, T/C [31] was 93.5%, the viability, T/C [32] was 81.5% and the viability, T/C [33] was 98.1%. The viability, T/C [34] was 86.6%, the viability, T/C [35] was 79.5% and the viability, T/C [36] was 71.5%.
